Laboratory results published in article PMC8280721, “Structural and Functional Analysis of a Multimodular Hyperthermostable Xylanase-Glucuronoyl Esterase from Caldicellulosiruptor kristjansonii” (Biochemistry, 2021).

How the values were obtained:
Type in all cases: binding
[1] = target: T1, CkGE15A (GE15A, glucuronoyl esterase domain of CkXyn10C-GE15A) (Caldicellulosiruptor acetigenus, UniProt E4S6E9); assay: DSF (Tycho NT.[…]); conditions: 10000 µM; 0.5 mg/mL protein, 50 mM MOPS pH 7.2; second inflection point; no-ligand control Ti2 81.3 ± 0.37 °C
T1 construct: gene Calkr_2245; isolated CE15 domain (entire GE domain Thr1341-Arg1685 seen in structure); E. coli BL21(DE3), pET28a-TEVc; full-length protein 2159 residues

[2] = target: T2, CBM9.3 (CkCBM9.3, third CBM9 domain of CkXyn10C-GE15A) (Caldicellulosiruptor acetigenus, UniProt E4S6E9); assay: DSF (Tycho NT.[…]); conditions: 100000 µM; 0.5 mg/mL protein, 50 mM Tris pH 8, 100 mM NaCl; 100 mM ligand; no-ligand control Ti 61.0 ± 0.88 °C
T2 construct: gene Calkr_2245; isolated CBM9.3 domain (Lys1072-Leu1252) plus C-terminal linker Lys1253-Pro1265; N-terminal His6 tag and TEV site (not seen in density); E. coli BL21(DE3), pET28a-TEVc; full-length protein 2159 residues

[3] = target: T2, CBM9.3 (CkCBM9.3, third CBM9 domain of CkXyn10C-GE15A); assay: X-ray crystallography (soak […], […] min); conditions: crystal at pH 4.2; aromatic clamp Tyr89/Trp191

T1 sequence (E4S6E9 entry or part of it): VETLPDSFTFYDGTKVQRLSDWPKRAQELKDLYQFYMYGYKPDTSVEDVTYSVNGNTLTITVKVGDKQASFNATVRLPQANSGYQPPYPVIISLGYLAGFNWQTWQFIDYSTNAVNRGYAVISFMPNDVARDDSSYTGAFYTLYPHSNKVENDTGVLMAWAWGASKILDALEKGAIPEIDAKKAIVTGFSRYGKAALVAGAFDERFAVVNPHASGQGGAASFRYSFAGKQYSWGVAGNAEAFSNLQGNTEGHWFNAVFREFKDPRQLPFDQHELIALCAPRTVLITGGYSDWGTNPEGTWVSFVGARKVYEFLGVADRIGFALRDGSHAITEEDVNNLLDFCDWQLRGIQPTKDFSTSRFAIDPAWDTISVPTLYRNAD
T2 sequence (E4S6E9 entry or part of it): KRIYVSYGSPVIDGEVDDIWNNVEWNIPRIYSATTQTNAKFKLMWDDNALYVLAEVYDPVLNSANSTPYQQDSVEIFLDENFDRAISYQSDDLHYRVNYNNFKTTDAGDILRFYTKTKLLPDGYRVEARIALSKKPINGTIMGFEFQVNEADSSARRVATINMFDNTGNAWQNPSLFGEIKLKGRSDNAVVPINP

Compound | Ti2 (°C) ± SD [1] [°C] | Ti (°C) ± SD [2] [°C] | X-ray crystallography (soak 500 mM, 5 min) [3]
aldopentauronic acid | 79.2 ± 0.49 | – | –
OC[C@H]1OC(O)[C@H](O)[C@@H](O)[C@@H]1O (stereo partly shown) [glucose] | – | 66.7 ± 0.195 | we obtained structures with bound glucose and cellobiose and also with cellotriose
O=C(OCc1ccccc1)[C@H]1OC(O)[C@H](O)[C@@H](O)[C@@H]1O (stereo partly shown) [benzylglucuronate] | 79.3 ± 0.49 | – | –
